Data: PubChem BioAssay AID2060901 (Molecular Pharmacology Branch, DTP, NCI, 2025)

System: 422866-222-R5-J1-PDC complex spheroids viability
Experiment: Anticancer human tumor 422866-222-R5-J1-PDC patient-derived pancreatic adenocarcinoma cell line growth inhibition [RAS]
Conditions: for IC50: curve of first compound; for viability, T/C: stronger effect = lower value; active means viability on the fitted dose curve at most 10% of control; inactive means the rest
From the text: RAS pathway inhibitors in Combinations in Complex Spheroids
A high-throughput screen of multi-cell type tumor spheroids was designed to identify active combinations of RAS pathway inhibitors and targeted small molecules. Complex spheroids include a stromal component modeled by human endothelial cells (HUVEC) and fibroblasts modeled by human mesenchymal stem cells (MSCs). The concentration ranges selected for each drug and investigational agent were based upon clinically achievable concentrations if the clinical Cmax of the agent was known.
Compounds. The drugs and investigational agents: abemaciclib (NSC768073), cobimetinib (NSC768068), divarasib (GDC6063, NSC841802), docetaxel (NSC628503), GDC-1971 (RLY-1971, NSC841576), gemcitabine (NSC613327), inavolisib (NSC800729), ipatasertib (NSC767898), KB-0742 (NSC834161), MRTX-1133 (NSC836407), osimertinib (NSC779217), RMC-4630 (NSC839698), RMC-6236 (NSC851965), RMC-6291 (NSC852671), Ro-3306 (NSC812927), sapanisertib (NSC764658), SN-38 (NSC673596), staurosporine (NSC755774), SY5609 (NSC837396), and tovorafenib (DAY101, NSC766906), were obtained from the National Cancer Institute (NCI) Developmental Therapeutics Program Chemical Repository. The FDA-approved anticancer drug set is available from the NCI Developmental Therapeutics Program. […] The stock solutions were prepared in dimethyl sulfoxide (DMSO, Sigma-Aldrich, St. Louis, MO, cat. D2650) at 800-fold the tested concentration and stored at -70 degrees C prior to their use. All drugs and investigational agents were tested over a range starting from a high concentration at or near the clinical Cmax and decreasing in half-log increments. If the clinical Cmax for an agent had not been determined, the highest concentration tested was 10 microM.
Cell Culture. All cells were maintained in an incubator at 37 degrees C and 5% CO2 with 95% humidity. The PDC lines were cultured according to standard operating procedures established by the NCI PDMR. All PDCs were thawed and cultured in Matrigel-coated flasks prepared with a working solution of 1X Ham's F-12 nutrient mix, without supplementation (Invitrogen, Waltham, MA, cat. 11765054), 100 U/mL penicillin-streptomycin (Invitrogen, cat. 15140122), and 2.5% Matrigel (Corning Inc., Corning, NY, cat. 354248) for the first three passages. The 362531-283-R-J2-PDC and 782815-120-R-J1-PDC lines were cultured in 6C/Colon 1B media, which includes advanced DMEM/F-12 (Thermo Fisher Scientific, cat. 12634028), 10 mM HEPES (Thermo Fisher Scientific, cat. 15630080), 1X GlutaMAX supplement (Thermo Fisher Scientific, cat. 35050061), 0.1 mg/mL primocin (InvivoGen, San Diego, CA, cat. ant-pm-2), 10% defined fetal bovine serum, heat inactivated (HyClone Laboratories Inc., Logan, UT, cat. SH30070.03HI), 50% L-WRN conditioned media (ATCC, cat. CRL-3276), 1.25 mM N-Acetyl-L-cysteine (Sigma-Aldrich, cat. A9165), 10 mM nicotinamide (Sigma-Aldrich, cat. N0636), 1X B-27 supplement (Thermo Fisher Scientific, cat. 17504044), 1X N-2 supplement (Thermo Fisher Scientific, cat. 17502048), 50 ng/mL human EGF (Thermo Fisher Scientific, cat. PHG0311), and 10 microM Y-27632 dihydrochloride (Tocris Bioscience, cat. 1254). The K12877-001-R-J1-PDC line was cultured in 6I media, which includes all 6C/Colon 1B media plus 10 ng/mL human FGF-10 (PeproTech, cat. 100-26), 1 ng/mL human FGF-2 (PeproTech, cat. 100-18B), 1 µM prostaglandin E2 (Tocris Bioscience, cat. 2296), […] hydrocortisone (Sigma-Aldrich, cat. H4001), and […] bovine insulin (Sigma-Aldrich, cat. I6634). The K86415-001-R-J1-PDC line was cultured in 6D media, which includes all 6C/Colon 1B media components minus the L-WRN conditioned media. The 485176-168-R4-J1-PDC was cultured in PANC media, which includes all 6C/Colon 1B media plus 100 ng/mL human FGF-10 (PeproTech, cat. 100-26), 500 nM SB-431542 (Selleckchem, cat. S1067), and 10 nM gastrin (Tocris Bioscience, cat. 3006). […]

[1] = second compound 0.0316 µM, first compound 0.0316 µM
[2] = second compound 0.0316 µM, first compound 0.1 µM
[3] = second compound 0.0316 µM, first compound 0.316 µM
[4] = second compound 0.0316 µM, first compound 1 µM
[5] = second compound 0.0316 µM, first compound 3.16 µM
[6] = second compound 0.0316 µM, first compound 10 µM
[7] = second compound 0.1 µM, first compound 0.0316 µM
[8] = second compound 0.1 µM, first compound 0.1 µM
[9] = second compound 0.1 µM, first compound 0.316 µM
[10] = second compound 0.1 µM, first compound 1 µM
[11] = second compound 0.1 µM, first compound 3.16 µM
[12] = second compound 0.1 µM, first compound 10 µM
[13] = second compound 0.316 µM, first compound 0.0316 µM
[14] = second compound 0.316 µM, first compound 0.1 µM
[15] = second compound 0.316 µM, first compound 0.316 µM
[16] = second compound 0.316 µM, first compound 1 µM
[17] = second compound 0.316 µM, first compound 3.16 µM
[18] = second compound 0.316 µM, first compound 10 µM
[19] = second compound 1 µM, first compound 0.0316 µM
[20] = second compound 1 µM, first compound 0.1 µM
[21] = second compound 1 µM, first compound 0.316 µM
[22] = second compound 1 µM, first compound 1 µM
[23] = second compound 1 µM, first compound 3.16 µM
[24] = second compound 1 µM, first compound 10 µM
[25] = second compound 3.16 µM, first compound 0.0316 µM
[26] = second compound 3.16 µM, first compound 0.1 µM
[27] = second compound 3.16 µM, first compound 0.316 µM
[28] = second compound 3.16 µM, first compound 1 µM
[29] = second compound 3.16 µM, first compound 3.16 µM
[30] = second compound 3.16 µM, first compound 10 µM
[31] = second compound 10 µM, first compound 0.0316 µM
[32] = second compound 10 µM, first compound 0.1 µM
[33] = second compound 10 µM, first compound 0.316 µM
[34] = second compound 10 µM, first compound 1 µM
[35] = second compound 10 µM, first compound 3.16 µM
[36] = second compound 10 µM, first compound 10 µM

CC(C)NCC(C(=O)N1CCN(c2ncnc3c2C(C)CC3O)CC1)c1ccc(Cl)cc1 (stereo unspecified) + C#Cc1c(F)ccc2cc(O)cc(-c3ncc4c(N5CC6CCC(C5)N6)nc(OCC56CCCN5CC(F)C6)nc4c3F)c12
inactive: viability, T/C [1] 87.4% | viability, T/C [2] 79% | viability, T/C [3] 88% | viability, T/C [4] 100% | viability, T/C [5] 103% | viability, T/C [6] 121% | viability, T/C [7] 86.9% | viability, T/C [8] 64.4% | viability, T/C [9] 78.3% | viability, T/C [10] 74.7% | viability, T/C [11] 94.2% | viability, T/C [12] 109% | viability, T/C [13] 60.3% | viability, T/C [14] 46.1% | viability, T/C [15] 58.5% | viability, T/C [16] 69.9% | viability, T/C [17] 81.8% | viability, T/C [18] 85.2% | viability, T/C [19] 39.9% | viability, T/C [20] 35.3% | viability, T/C [21] 38.9% | viability, T/C [22] 48.6% | viability, T/C [23] 66.5% | viability, T/C [24] 58.9% | viability, T/C [25] 25.6% | viability, T/C [26] 24.3% | viability, T/C [27] 19.6% | viability, T/C [28] 29.4% | viability, T/C [29] 38.4% | viability, T/C [30] 40.9% | viability, T/C [31] 17.3% | viability, T/C [32] 19% | viability, T/C [33] 14.6% | viability, T/C [34] 12% | viability, T/C [35] 18.8% | viability, T/C [36] 18.8%
< 31.6 nM: IC50 (second compound 1 µM) | IC50 (second compound 3.16 µM) | IC50 (second compound 10 µM)
> 10000 nM: IC50 (second compound 0.0316 µM) | IC50 (second compound 0.1 µM) | IC50 (second compound 0.316 µM)

CC(C)n1nc(-c2ccc3oc(N)nc3c2)c2c(N)ncnc21 + C#Cc1c(F)ccc2cc(O)cc(-c3ncc4c(N5CC6CCC(C5)N6)nc(OCC56CCCN5CC(F)C6)nc4c3F)c12
> 100 nM: IC50 (second compound 0.0316 µM) | IC50 (second compound 0.1 µM) | IC50 (second compound 0.316 µM)
< 0.316 nM: IC50 (second compound 1 µM) | IC50 (second compound 3.16 µM) | IC50 (second compound 10 µM)
inactive: viability, T/C (second compound 0.0316 µM, first compound 0.000316 µM) 90.6% | viability, T/C (second compound 0.0316 µM, first compound 0.001 µM) 104% | viability, T/C (second compound 0.0316 µM, first compound 0.00316 µM) 73.3% | viability, T/C (second compound 0.0316 µM, first compound 0.01 µM) 54.9% | viability, T/C [1] 77.6% | viability, T/C [2] 68.4% | viability, T/C (second compound 0.1 µM, first compound 0.000316 µM) 62.5% | viability, T/C (second compound 0.1 µM, first compound 0.001 µM) 75.1% | viability, T/C (second compound 0.1 µM, first compound 0.00316 µM) 65.4% | viability, T/C (second compound 0.1 µM, first compound 0.01 µM) 54.6% | viability, T/C [7] 80% | viability, T/C [8] 56.8% | viability, T/C (second compound 0.316 µM, first compound 0.000316 µM) 66.4% | viability, T/C (second compound 0.316 µM, first compound 0.001 µM) 62.1% | viability, T/C (second compound 0.316 µM, first compound 0.00316 µM) 60% | viability, T/C (second compound 0.316 µM, first compound 0.01 µM) 49.7% | viability, T/C [13] 58.6% | viability, T/C [14] 61.7% | viability, T/C (second compound 1 µM, first compound 0.000316 µM) 42.5% | viability, T/C (second compound 1 µM, first compound 0.001 µM) 37.9% | viability, T/C (second compound 1 µM, first compound 0.00316 µM) 28.2% | viability, T/C (second compound 1 µM, first compound 0.01 µM) 26.7% | viability, T/C [19] 44% | viability, T/C [20] 48.5% | viability, T/C (second compound 3.16 µM, first compound 0.000316 µM) 31.5% | viability, T/C (second compound 3.16 µM, first compound 0.001 µM) 26% | viability, T/C (second compound 3.16 µM, first compound 0.00316 µM) 25.8% | viability, T/C (second compound 3.16 µM, first compound 0.01 µM) 19.8% | viability, T/C [25] 20.9% | viability, T/C [26] 19.3% | viability, T/C (second compound 10 µM, first compound 0.000316 µM) 18.8% | viability, T/C (second compound 10 µM, first compound 0.001 µM) 21.7% | viability, T/C (second compound 10 µM, first compound 0.00316 µM) 17.4% | viability, T/C (second compound 10 µM, first compound 0.01 µM) 15.2% | viability, T/C [31] 18.1% | viability, T/C [32] 15.1%

C[C@@H](NC(=O)c1ncnc(N)c1Cl)c1ncc(C(=O)Nc2cc(C(F)(F)F)c(Cl)cn2)s1 + C#Cc1c(F)ccc2cc(O)cc(-c3ncc4c(N5CC6CCC(C5)N6)nc(OCC56CCCN5CC(F)C6)nc4c3F)c12
> 10000 nM: IC50 (second compound 0.0316 µM) | IC50 (second compound 0.1 µM) | IC50 (second compound 0.316 µM)
inactive: viability, T/C [1] 108% | viability, T/C [2] 114% | viability, T/C [3] 106% | viability, T/C [4] 117% | viability, T/C [5] 89% | viability, T/C [6] 57% | viability, T/C [7] 103% | viability, T/C [8] 88.3% | viability, T/C [9] 89.2% | viability, T/C [10] 74% | viability, T/C [11] 85.3% | viability, T/C [12] 58.3% | viability, T/C [13] 68.8% | viability, T/C [14] 67% | viability, T/C [15] 72.2% | viability, T/C [16] 55% | viability, T/C [17] 72.8% | viability, T/C [18] 48.1% | viability, T/C [19] 43% | viability, T/C [20] 44.5% | viability, T/C [21] 45.4% | viability, T/C [22] 39.7% | viability, T/C [23] 49.6% | viability, T/C [24] 46.7% | viability, T/C [25] 29% | viability, T/C [26] 28.4% | viability, T/C [27] 40.1% | viability, T/C [28] 28.3% | viability, T/C [29] 33.1% | viability, T/C [30] 27.9% | viability, T/C [31] 24.3% | viability, T/C [32] 22.6% | viability, T/C [33] 24.8% | viability, T/C [34] 24.4% | viability, T/C [35] 23.9% | viability, T/C [36] 24.5%
< 31.6 nM: IC50 (second compound 1 µM) | IC50 (second compound 3.16 µM) | IC50 (second compound 10 µM)
